Measured values: ChEMBL document CHEMBL3822377, “Locking PDK1 in DFG-out conformation through 2-oxo-indole containing molecules: Another tools to fight glioblastoma” (Eur J Med Chem, 2016)
Activity calls are given as the source filed them. The calls are words filed in the database; no cut-off is given here.

Assays:
[1] = biological target: Proto-oncogene tyrosine-protein kinase Src (Homo sapiens) (UniProt P12931); assay: Inhibition of His-tagged full-length recombinant human SRC expressed in baculovirus system at 100 nM by Z-lyte assay
Proto-oncogene tyrosine-protein kinase Src (Homo sapiens), sequence (P12931 2-536 limits assumed): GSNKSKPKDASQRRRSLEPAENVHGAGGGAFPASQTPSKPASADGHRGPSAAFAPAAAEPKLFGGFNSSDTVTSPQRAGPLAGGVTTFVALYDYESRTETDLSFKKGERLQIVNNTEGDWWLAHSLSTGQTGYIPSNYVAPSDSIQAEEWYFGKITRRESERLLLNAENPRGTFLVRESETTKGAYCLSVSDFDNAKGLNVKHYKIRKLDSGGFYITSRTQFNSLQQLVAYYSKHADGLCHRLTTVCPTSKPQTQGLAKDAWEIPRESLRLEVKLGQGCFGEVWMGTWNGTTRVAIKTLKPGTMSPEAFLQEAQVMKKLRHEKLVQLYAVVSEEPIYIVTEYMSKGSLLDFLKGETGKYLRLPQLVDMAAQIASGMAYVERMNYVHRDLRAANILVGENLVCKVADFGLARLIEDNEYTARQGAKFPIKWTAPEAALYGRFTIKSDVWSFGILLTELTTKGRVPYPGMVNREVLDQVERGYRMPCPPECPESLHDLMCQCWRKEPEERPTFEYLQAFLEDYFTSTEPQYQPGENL

[2] = biological target: Mitogen-activated protein kinase 9 (Homo sapiens) (UniProt P45984); assay: Inhibition of His-tagged full-length recombinant human MAPK9 expressed in baculovirus system at 100 nM by Z-lyte assay
Mitogen-activated protein kinase 9 (Homo sapiens), sequence (P45984 whole entry, looked up): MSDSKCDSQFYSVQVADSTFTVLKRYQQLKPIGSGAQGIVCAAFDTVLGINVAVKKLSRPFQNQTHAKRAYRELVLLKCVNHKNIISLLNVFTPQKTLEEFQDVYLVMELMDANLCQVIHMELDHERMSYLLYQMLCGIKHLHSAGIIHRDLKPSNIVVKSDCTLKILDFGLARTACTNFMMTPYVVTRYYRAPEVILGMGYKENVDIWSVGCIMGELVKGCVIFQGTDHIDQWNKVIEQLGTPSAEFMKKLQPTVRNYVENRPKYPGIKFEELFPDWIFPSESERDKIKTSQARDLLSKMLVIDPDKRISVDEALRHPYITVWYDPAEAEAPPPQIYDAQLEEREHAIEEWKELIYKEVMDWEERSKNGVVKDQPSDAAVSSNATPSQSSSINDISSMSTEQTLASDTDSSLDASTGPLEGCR

[3] = biological target: Glycogen synthase kinase-3 beta (Homo sapiens) (UniProt P49841); assay: Inhibition of His-tagged full-length recombinant human GSK3 beta expressed in baculovirus system at 100 nM by Z-lyte assay
Glycogen synthase kinase-3 beta (Homo sapiens), sequence (P49841 whole entry, looked up): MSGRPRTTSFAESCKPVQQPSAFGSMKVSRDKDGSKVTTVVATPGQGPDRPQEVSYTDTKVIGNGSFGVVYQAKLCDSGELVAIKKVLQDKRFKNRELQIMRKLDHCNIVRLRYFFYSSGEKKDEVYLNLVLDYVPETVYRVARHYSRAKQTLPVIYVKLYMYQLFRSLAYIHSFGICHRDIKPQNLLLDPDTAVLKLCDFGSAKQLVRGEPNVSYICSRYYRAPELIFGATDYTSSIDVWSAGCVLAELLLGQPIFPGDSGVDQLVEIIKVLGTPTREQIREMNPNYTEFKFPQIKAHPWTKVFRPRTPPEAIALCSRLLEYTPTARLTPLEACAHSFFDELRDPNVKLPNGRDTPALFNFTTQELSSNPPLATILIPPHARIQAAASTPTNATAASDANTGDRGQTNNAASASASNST

[4] = biological target: Protein kinase C alpha type (Homo sapiens) (UniProt P17252); assay: Inhibition of full-length human PRKCA expressed in baculovirus system at 100 nM by Z-lyte assay
[5] = biological target: Serine/threonine-protein kinase PAK 6 (Homo sapiens) (UniProt Q9NQU5); assay: Inhibition of His-tagged full-length recombinant human PAK6 expressed in baculovirus system at 100 nM by Z-lyte assay
Serine/threonine-protein kinase PAK 6 (Homo sapiens), sequence (Q9NQU5 whole entry, looked up): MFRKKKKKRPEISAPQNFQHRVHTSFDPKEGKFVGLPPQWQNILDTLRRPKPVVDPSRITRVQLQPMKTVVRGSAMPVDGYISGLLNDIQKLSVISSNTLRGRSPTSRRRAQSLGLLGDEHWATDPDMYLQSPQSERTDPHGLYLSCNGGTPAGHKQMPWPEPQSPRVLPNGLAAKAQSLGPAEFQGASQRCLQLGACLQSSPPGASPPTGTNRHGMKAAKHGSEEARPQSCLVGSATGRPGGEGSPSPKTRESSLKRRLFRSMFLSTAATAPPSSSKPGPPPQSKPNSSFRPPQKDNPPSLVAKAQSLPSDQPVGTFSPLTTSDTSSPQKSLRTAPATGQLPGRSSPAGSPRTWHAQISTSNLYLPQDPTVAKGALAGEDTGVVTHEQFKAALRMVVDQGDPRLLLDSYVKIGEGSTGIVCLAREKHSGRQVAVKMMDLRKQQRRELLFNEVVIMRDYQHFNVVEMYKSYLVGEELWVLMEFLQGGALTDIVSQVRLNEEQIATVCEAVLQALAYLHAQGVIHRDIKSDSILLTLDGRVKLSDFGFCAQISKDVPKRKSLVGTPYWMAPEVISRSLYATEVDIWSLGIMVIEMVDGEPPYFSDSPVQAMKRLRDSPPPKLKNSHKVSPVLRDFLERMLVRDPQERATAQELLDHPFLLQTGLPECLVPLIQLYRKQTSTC

GSC [6] = assay: (§1) Antiproliferative activity against human GSC cells after 7 days by MTS assay; type: functional, cell-based
[7] = as §1; type: functional, cell-based; conditions: 168 h
[8] = biological target: Tyrosine-protein kinase BTK (Homo sapiens) (UniProt Q06187); assay: Inhibition of His-tagged full-length human BTK expressed in baculovirus system at 100 nM by Z-lyte assay
Tyrosine-protein kinase BTK (Homo sapiens), sequence (Q06187 whole entry): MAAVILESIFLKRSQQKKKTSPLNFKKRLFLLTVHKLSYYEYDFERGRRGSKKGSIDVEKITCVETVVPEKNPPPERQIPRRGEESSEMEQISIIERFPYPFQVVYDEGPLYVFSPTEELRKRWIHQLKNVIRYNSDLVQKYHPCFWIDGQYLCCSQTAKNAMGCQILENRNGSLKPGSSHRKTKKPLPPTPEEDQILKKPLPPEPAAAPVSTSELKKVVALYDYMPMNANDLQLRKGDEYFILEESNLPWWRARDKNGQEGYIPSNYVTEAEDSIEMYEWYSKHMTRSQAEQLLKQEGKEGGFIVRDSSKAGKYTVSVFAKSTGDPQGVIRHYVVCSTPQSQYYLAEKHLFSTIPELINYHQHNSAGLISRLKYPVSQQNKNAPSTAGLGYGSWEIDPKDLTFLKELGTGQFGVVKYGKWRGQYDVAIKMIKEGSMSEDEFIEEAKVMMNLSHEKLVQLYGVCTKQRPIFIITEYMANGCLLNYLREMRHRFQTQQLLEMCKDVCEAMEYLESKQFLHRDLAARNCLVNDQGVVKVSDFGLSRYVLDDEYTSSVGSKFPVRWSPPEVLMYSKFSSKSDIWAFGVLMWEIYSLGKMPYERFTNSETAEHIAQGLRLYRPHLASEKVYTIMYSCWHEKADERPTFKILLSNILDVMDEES

[9] = biological target: Serine/threonine-protein kinase B-raf (Homo sapiens) (UniProt P15056); assay: Inhibition of GST-tagged full-length human BRAF expressed in baculovirus system at 100 nM by Z-lyte assay
[10] = biological target: Casein kinase I isoform alpha (Homo sapiens) (UniProt P48729); assay: Inhibition of GST-tagged human CSNK1A1 expressed in baculovirus system at 100 nM by Z-lyte assay
Casein kinase I isoform alpha (Homo sapiens), sequence (P48729 2-337 limits assumed): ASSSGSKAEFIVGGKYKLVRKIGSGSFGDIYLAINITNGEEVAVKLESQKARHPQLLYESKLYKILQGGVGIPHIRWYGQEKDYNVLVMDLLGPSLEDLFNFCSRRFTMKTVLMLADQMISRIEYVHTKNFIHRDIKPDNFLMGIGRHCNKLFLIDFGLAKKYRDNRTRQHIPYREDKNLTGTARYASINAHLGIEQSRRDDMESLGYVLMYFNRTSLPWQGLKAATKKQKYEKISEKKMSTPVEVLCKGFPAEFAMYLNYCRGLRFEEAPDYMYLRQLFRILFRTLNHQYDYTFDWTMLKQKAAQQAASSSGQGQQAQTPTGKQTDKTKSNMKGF

[11] = biological target: RAC-gamma serine/threonine-protein kinase (Homo sapiens) (UniProt Q9Y243); assay: Inhibition of His-tagged full-length human AKT3 expressed in baculovirus system at 100 nM by Z-lyte assay
[12] = biological target: Mitogen-activated protein kinase 3 (Homo sapiens) (UniProt P27361); assay: Inhibition of GST-tagged full-length recombinant human MAPK3 expressed in baculovirus system at 100 nM by Z-lyte assay
[13] = biological target: Protein kinase C delta type (Homo sapiens) (UniProt Q05655); assay: Inhibition of full-length recombinant human PRKCD expressed in baculovirus system at 100 nM by Z-lyte assay
[14] = biological target: Protein kinase C beta type (Homo sapiens) (UniProt P05771); assay: Inhibition of full-length human PRKCB1 expressed in baculovirus system at 100 nM by Z-lyte assay
[15] = biological target: Serine/threonine-protein kinase MRCK alpha (Homo sapiens) (UniProt Q5VT25); assay: Inhibition of His-tagged human CDC42 BPA expressed in baculovirus system at 100 nM by Z-lyte assay
[16] = Induction of apoptosis in human GSC cells assessed as early apoptotic cells by measuring phosphatidylserine externalisation at 10 uM after 7 days by AnnexinV/FITC staining-based flow cytometry (reference value: 6.69%); type: functional
U-87 MG [17] = assay: Induction of apoptosis in human U87MG cells assessed as live cells by measuring phosphatidylserine externalisation at 10 uM after 72 hrs by AnnexinV/FITC staining-based flow cytometry (reference value: 87.05%); type: functional, U-87MG ATCC
[18] = biological target: Casein kinase I isoform gamma-1 (Homo sapiens) (UniProt Q9HCP0); assay: Inhibition of GST-tagged full-length human CSNK1G1 expressed in baculovirus system at 100 nM by Z-lyte assay
U-87 MG [19] = assay: Induction of apoptosis in human U87MG cells assessed as late apoptotic cells by measuring phosphatidylserine externalisation at 10 uM after 72 hrs in presence of 7-amino-actinomysin by AnnexinV/FITC staining-based flow cytometry (reference value: 4.46%); type: functional, U-87MG ATCC
[20] = biological target: Mitogen-activated protein kinase 1 (Homo sapiens) (UniProt P28482); assay: Inhibition of GST-tagged full-length human MAPK1 expressed in Escherichia coli at 100 nM by Z-lyte assay
GSC [21] = assay: Antiproliferative activity against human GSC cells at 0.001 to 1 uM after 4 days by MTS assay; type: functional, cell-based
[22] = biological target: Cyclin-dependent kinase 5/CDK5 activator 1 (Homo sapiens) (UniProt Q00535+Q15078); assay: Inhibition of His-tagged full-length human CDK5/p35 expressed in baculovirus system at 100 nM by Z-lyte assay
[23] = biological target: T1, 3-phosphoinositide-dependent protein kinase 1 (Homo sapiens) (UniProt O15530); assay: Inhibition of PDK1 in human GSC cells assessed as reduction in AKT phosphorylation at Thr308 residue at 10 uM by ELISA relative to control; type: cell-based; conditions: TDE = time-dependent effect
T1 sequence (whole entry): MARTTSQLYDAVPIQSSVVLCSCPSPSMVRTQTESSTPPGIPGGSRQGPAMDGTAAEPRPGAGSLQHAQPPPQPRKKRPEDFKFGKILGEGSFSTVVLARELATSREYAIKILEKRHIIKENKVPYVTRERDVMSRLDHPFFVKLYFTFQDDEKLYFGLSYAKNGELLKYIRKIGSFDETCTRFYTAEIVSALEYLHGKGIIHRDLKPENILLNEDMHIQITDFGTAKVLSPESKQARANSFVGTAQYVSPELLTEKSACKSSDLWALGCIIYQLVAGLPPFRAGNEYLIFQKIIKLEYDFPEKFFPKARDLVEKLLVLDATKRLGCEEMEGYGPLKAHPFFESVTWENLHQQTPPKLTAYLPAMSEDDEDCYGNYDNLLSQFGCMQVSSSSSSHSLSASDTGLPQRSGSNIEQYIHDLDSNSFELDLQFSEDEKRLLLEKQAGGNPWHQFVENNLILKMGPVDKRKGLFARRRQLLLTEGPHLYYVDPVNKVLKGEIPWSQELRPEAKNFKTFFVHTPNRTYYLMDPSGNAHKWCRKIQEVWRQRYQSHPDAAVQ

[24] = biological target: Phosphatidylinositol 4,5-bisphosphate 3-kinase catalytic subunit gamma isoform (Homo sapiens) (UniProt P48736); assay: Inhibition of His-tagged full-length human PIK3CG expressed in baculovirus system at 100 nM by adapta assay
Phosphatidylinositol 4,5-bisphosphate 3-kinase catalytic subunit gamma isoform (Homo sapiens), sequence (P48736 whole entry, looked up, canonical isoform): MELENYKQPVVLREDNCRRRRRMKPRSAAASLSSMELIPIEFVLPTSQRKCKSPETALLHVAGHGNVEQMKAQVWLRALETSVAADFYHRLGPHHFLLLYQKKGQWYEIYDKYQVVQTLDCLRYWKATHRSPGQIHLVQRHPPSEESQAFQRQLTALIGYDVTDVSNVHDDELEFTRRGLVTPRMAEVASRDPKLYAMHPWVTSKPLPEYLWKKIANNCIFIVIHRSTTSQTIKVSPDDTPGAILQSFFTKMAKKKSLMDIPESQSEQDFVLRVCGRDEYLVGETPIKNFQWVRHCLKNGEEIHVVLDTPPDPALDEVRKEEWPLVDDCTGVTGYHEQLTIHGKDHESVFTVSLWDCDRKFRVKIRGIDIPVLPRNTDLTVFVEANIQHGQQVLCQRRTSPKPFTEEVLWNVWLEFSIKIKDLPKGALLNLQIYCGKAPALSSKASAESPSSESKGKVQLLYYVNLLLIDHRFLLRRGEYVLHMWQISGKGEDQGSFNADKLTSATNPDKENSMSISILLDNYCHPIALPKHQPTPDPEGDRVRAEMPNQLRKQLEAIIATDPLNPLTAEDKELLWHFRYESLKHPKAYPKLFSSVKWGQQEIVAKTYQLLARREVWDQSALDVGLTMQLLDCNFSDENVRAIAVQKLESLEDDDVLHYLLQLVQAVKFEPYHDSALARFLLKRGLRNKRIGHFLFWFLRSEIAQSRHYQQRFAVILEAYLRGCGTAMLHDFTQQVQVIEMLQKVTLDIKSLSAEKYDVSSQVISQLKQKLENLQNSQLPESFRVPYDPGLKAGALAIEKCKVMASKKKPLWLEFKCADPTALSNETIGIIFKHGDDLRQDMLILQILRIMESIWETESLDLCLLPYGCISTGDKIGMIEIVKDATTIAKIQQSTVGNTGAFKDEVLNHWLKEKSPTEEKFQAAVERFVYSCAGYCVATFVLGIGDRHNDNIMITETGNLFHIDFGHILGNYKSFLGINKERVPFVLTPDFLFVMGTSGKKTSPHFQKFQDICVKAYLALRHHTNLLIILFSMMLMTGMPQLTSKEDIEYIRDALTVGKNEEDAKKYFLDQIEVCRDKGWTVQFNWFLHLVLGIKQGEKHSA

[25] = biological target: Ribosomal protein S6 kinase alpha-1 (Homo sapiens) (UniProt Q15418); assay: Inhibition of His-tagged full-length recombinant human RSK1 expressed in baculovirus system at 100 nM by Z-lyte assay
Ribosomal protein S6 kinase alpha-1 (Homo sapiens), sequence (Q15418 whole entry): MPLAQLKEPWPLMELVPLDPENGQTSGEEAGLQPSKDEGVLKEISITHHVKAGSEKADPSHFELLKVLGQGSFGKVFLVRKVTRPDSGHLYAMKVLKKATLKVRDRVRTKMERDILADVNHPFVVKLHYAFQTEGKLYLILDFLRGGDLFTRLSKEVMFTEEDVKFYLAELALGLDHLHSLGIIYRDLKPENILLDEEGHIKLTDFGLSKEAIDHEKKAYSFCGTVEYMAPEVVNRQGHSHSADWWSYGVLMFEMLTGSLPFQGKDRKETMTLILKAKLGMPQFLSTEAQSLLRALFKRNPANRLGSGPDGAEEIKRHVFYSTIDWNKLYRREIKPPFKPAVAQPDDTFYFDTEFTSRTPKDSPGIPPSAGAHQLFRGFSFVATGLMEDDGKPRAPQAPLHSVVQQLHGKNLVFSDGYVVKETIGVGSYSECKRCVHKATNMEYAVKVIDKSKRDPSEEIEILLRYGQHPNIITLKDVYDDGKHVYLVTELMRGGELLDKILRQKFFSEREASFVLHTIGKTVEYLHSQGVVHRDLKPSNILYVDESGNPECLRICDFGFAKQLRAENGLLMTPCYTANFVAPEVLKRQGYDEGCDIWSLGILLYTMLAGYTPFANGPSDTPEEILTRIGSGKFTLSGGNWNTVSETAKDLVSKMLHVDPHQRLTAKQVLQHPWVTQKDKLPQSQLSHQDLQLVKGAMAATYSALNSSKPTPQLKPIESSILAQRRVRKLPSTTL

[26] = biological target: CDK9/cyclin T1 (Homo sapiens) (UniProt O60563+P50750); assay: Inhibition of His-tagged full-length human recombinant CDK9/Cyclin T1 expressed in baculovirus system at 100 nM by adapta assay
[27] = system: RAF proto-oncogene serine/threonine-protein kinase (Homo sapiens), P04049 [Y340D,Y341D]; assay: Inhibition of catalytic GST-tagged human RAF1 Y340D/Y341D double mutant expressed in baculovirus system at 100 nM by Z-lyte assay
[28] = biological target: Ribosomal protein S6 kinase beta-1 (Homo sapiens) (UniProt P23443); assay: Inhibition of catalytic GST-tagged human RPS6KB1 expressed in baculovirus system at 100 nM by Z-lyte assay

O=C(CNC(=O)c1cccn(Cc2ccc(F)c(F)c2)c1=O)Nc1ccc2c(c1)/C(=C/c1cnc[nH]1)C(=O)N2
inhibition [1]: 7%
inhibition [2]: -1%
inhibition [3]: 24%
inhibition [4]: 0%
inhibition [5]: -4%
Activity (GSC [6]): Dose-dependent effect
IC50 [7]: 3.36 nM
inhibition [8]: -3%
inhibition [9]: 17%
inhibition [10]: -2%
inhibition [11]: 2%
inhibition [12]: -3%
inhibition [13]: -7%
inhibition [14]: -10%
inhibition [15]: -3%
Activity [16]: 16.15%
Activity (U-87 MG [17]): 76.41%
inhibition [18]: 3%
Activity (U-87 MG [19]): 5.65%
inhibition [20]: 6%
Activity (GSC [21]): Active
inhibition [22]: 2%
inhibition [23]: tde
inhibition [24]: 2%
inhibition [25]: 2%
inhibition [26]: 6%
inhibition [27]: 10%
inhibition [28]: -6%
